Source: patent publication US5508180A, “Biocatalytic oxidation using soybean peroxidase” (Enzymol International, Inc., priority 1994, dated 1996)

Key:
Assay type in all cases: biochemical
soybean peroxidase [1] = target: T1, soybean peroxidase (Glycine max, UniProt O22443); assay: N-demethylation of N,N-dimethylanthranilic acid methyl ester by soybean peroxidase
T1 construct: secreted heme glycoprotein, reported 37 kDa
Description: N,N-Dimethylanthranilic acid methyl ester (DMA) and the product of N-demethylation, N-methylanthranilic acid methyl ester (NMA), were purchased from TCI America (Portland, Oreg.). […] Using 1 g. (5mM) DMA in 25 mM acetate, pH 4.5, 120 ppu SBP and 1 mM H202, the increases observed were: 295 nm - 0.727 AU per min; 379 nm -0.403 AU per min. To optimize N-demethylation, the effect of pH was studied using 25 mM buffers at the appropriate pH.

soybean peroxidase [2] = target: T1, soybean peroxidase; assay: Oxidation of methyl p-tolyl sulfide to sulfoxide and sulfone by soybean peroxidase; conditions: for Absorbance Units at 308 nm: pH 2 (conversion to sulfone)
Description: Methyl p-tolyl sulfide (MTS), and the enantiomeric oxidation products (R)-(+)-methyl tolyl sulfoxide (MTSO) and (S)-(-)-methyl tolyl sulfoxide, were purchased from Aldrich (Milwaukee, Wis). A stock solution of MTS was prepared by adding 1 g MTS to 750 ml water and heating at 60° C. for 15 min. A warm stock solution was used for all assays to maintain the substrate in solution. […] At pH 2 these peaks shift to 274 and 311 nm, respectively.
Assays with MTS were done with 120 ppu SBP and 1 mM H2 O2.
The effect of pH on the oxidation of MTS was studied to optimize the reaction. Buffers were used at the indicated pH at 25 mM concentration.
The effect of temperature on aromatic sulfide oxidation was investigated at pH 3.5 using MTS. Conditions were 120 ppu SBP, 25 mM Glycine, 2 mM MTS, 1 mM H2 O2.

soybean peroxidase [3] = target: T1, soybean peroxidase; assay: Chlorination of dimedone to 2-chlorodimedone catalyzed by soybean peroxidase; conditions: for Absorbance Units at 307 nm: pH 2, 120 ppu SBP, 1 mM H2O2, room temperature
Description: A stock solution (9.5 mM dimedone) was prepared by adding 1 g. 5,5-dimethyl-1,3-cyclohexane dione (dimedone) to […]. The solution was stirred to dissolve the dimedone and the pH adjusted to 2 with HCl. Chlorination of dimedone was catalyzed by soybean peroxidase (120 ppu) at pH 2 and 1 mM H2 O2. Increase in absorbance at 307 nm, corresponding to the absorbance maximum of 2-chlorodimedone was followed at room temperature and is shown in Table 9.
The effect of temperature on cholrination of dimedone was studied under these conditions. Reactions were performed as described above with increasing assay temperature.

soybean peroxidase [4] = target: T1, soybean peroxidase; assay: Oxidation of veratryl alcohol to veratryl aldehyde by soybean peroxidase and hydrogen peroxide, absorbance at 308 nm
Description: Preparation of Soybean Peroxidase Solution: Purified soybean peroxidase was lyophilized to give a powder at 120 purpurogallin units (as defined by Sigma) per mg. Purification was done with addition of 5 mM CaCl2, but without buffers or other non-volatile substances which would carry over with the enzyme in the powder. Lyophilization typically yielded 4.5 g from 60 ml. […] Using the extinction coefficient reported for heme in HRP ([…] at 403 nm in 0.1M Tris pH 7), and the reported molecular weight of SBP (37,000), the solid was 60% peroxidase by weight.
Preparation of peroxide stock solution: 1.5 ml of 30% hydrogen peroxide was diluted to 100 ml with water to provide a 0,147M stock solution of hydrogen peroxide.
0.1 ml soybean peroxidase (120 purpurogallin units/ml) stock solution was added to 3 ml veratryl alcohol solution (1 g veratryl alcohol in 750 ml water) and vortexed in a test tube. 20 μl peroxide stock solution was added, mixed and the solution poured into a 1 cm path, 4 ml quartz cuvette. Using a Shimadzu UV-160 double beam recording spectophotometer, the change in absorbance of the sample compared to a reference cuvette containing 3 ml veratryl alcohol solution only was monitored every minute by scanning wavelengths from 500 to 200 nm. The peak wavelength of 308 nm was identified as veratryl aldehyde and was used for further monitoring. The kinetics of the reaction were determined from the linear portion of the increase in absorbance.
To determine the effects of pH on the oxidation of veratryl alcohol, a veratryl alcohol stock solution containing 20 mM CaCl2 was divided into 9 samples and each sample treated with HCl to provide 9 samples ranging in pH from 1.25 to 3.3 ml of solution was withdrawn from each sample and the change in absorbance (dA) of veratryl alcohol in each sample was measured at 308 nm at room temperature.
To determine the effects of temperature on veratryl alcohol oxidation at a pH of 2, 5 samples of a veratryl alcohol stock solution without CaCl2 were obtained and the absorbance of veratryl alcohol was measured at varying temperatures. The samples were incubated in a circulating water bath and cuvette blocks were preheated by connection with the same bath. The test cuvette was left empty in the block to equilibrate prior to assay. Enzyme and peroxide stock solutions were stored at room temperature. Assay was initiated by pouring the alcohol solution into the cuvette, adding 0.1 ml enzyme, inverting, adding 20 ul peroxide, inverting, and immediately starting to record change in absorbance.

T1 sequence (O22443 27-332): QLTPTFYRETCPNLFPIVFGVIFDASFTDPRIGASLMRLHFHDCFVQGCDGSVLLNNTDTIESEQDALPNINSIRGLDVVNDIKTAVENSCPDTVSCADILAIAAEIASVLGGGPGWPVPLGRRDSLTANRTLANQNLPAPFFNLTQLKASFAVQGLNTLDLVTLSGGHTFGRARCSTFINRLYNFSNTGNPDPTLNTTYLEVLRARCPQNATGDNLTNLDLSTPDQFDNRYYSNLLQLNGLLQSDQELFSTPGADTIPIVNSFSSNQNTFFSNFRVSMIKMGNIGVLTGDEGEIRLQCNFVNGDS

COC(=O)c1ccccc1N(C)C [DMA, N,N-Dimethylanthranilic acid methyl ester]
increase in absorbance at 295 nm (soybean peroxidase [1]; 5mM DMA, 25 mM acetate pH 4.5, 120 ppu SBP, 1 mM H2O2): 0.727 AU per min
dA per min at 379 nm (soybean peroxidase [1]; pH 1, 25 mM buffer): 0.005
dA per min at 379 nm (soybean peroxidase [1]; pH 2, 25 mM buffer): 0.2603
dA per min at 379 nm (soybean peroxidase [1]; pH 3, 25 mM buffer): 0.099
dA per min at 379 nm (soybean peroxidase [1]; pH 4, 25 mM buffer): 0.181
dA per min at 379 nm (soybean peroxidase [1]; pH 5, 25 mM buffer): 0.2401
dA per min at 379 nm (soybean peroxidase [1]; pH 6, 25 mM buffer): 0.1095
dA per min at 379 nm (soybean peroxidase [1]; pH 7, 25 mM buffer): 0.0065

CSc1ccc(C)cc1 [MTS, Methyl p-tolyl sulfide]
pH optimum of oxidation of MTS to MTSO (soybean peroxidase [2]): 3.5
dA per min at 279 nm (soybean peroxidase [2]; 25 °C, pH 3.5, 120 ppu SBP, 25 mM Glycine, 2 mM MTS, 1 mM H2O2): 0.0607
dA per min at 279 nm (soybean peroxidase [2]; 35 °C, pH 3.5, 120 ppu SBP, 25 mM Glycine, 2 mM MTS, 1 mM H2O2): 0.0824
dA per min at 279 nm (soybean peroxidase [2]; 45 °C, pH 3.5, 120 ppu SBP, 25 mM Glycine, 2 mM MTS, 1 mM H2O2): 0.1012
dA per min at 279 nm (soybean peroxidase [2]; 55 °C, pH 3.5, 120 ppu SBP, 25 mM Glycine, 2 mM MTS, 1 mM H2O2): 0.1735
dA per min at 279 nm (soybean peroxidase [2]; 65 °C, pH 3.5, 120 ppu SBP, 25 mM Glycine, 2 mM MTS, 1 mM H2O2): 0.2563
dA per min at 279 nm (soybean peroxidase [2]; 75 °C, pH 3.5, 120 ppu SBP, 25 mM Glycine, 2 mM MTS, 1 mM H2O2): 0.1065
dA per min at 279 nm (soybean peroxidase [2]; 85 °C, pH 3.5, 120 ppu SBP, 25 mM Glycine, 2 mM MTS, 1 mM H2O2): 0.0908
dA per min at 279 nm (soybean peroxidase [2]; pH 1, 25 mM buffer): 0.0348
dA per min at 279 nm (soybean peroxidase [2]; pH 2, 25 mM buffer): -0.1376
dA per min at 279 nm (soybean peroxidase [2]; pH 3, 25 mM buffer): 0.1042
dA per min at 279 nm (soybean peroxidase [2]; pH 3.5, 25 mM buffer): 0.218
dA per min at 279 nm (soybean peroxidase [2]; pH 4, 25 mM buffer): 0.0893
dA per min at 279 nm (soybean peroxidase [2]; pH 4.5, 25 mM buffer): 0.0017
Absorbance Units at 308 nm (soybean peroxidase [2]; time of reaction 0 min): 0.21 Absorbance Units
Absorbance Units at 308 nm (soybean peroxidase [2]; time of reaction 1 min): 0.293 Absorbance Units
Absorbance Units at 308 nm (soybean peroxidase [2]; time of reaction 2 min): 0.35 Absorbance Units
Absorbance Units at 308 nm (soybean peroxidase [2]; time of reaction 3 min): 0.381 Absorbance Units
Absorbance Units at 308 nm (soybean peroxidase [2]; time of reaction 4 min): 0.401 Absorbance Units

CC1(C)CC(=O)CC(=O)C1 [dimedone, 5,5-dimethyl-1,3-cyclohexane dione]
dA per min at 307 nm (soybean peroxidase [3]; 25 °C, pH 2): 0.1066
dA per min at 307 nm (soybean peroxidase [3]; 35 °C, pH 2): 0.1204
dA per min at 307 nm (soybean peroxidase [3]; 45 °C, pH 2): 0.1962
dA per min at 307 nm (soybean peroxidase [3]; 55 °C, pH 2): 0.1792
dA per min at 307 nm (soybean peroxidase [3]; 65 °C, pH 2): 0.0155
dA per min at 307 nm (soybean peroxidase [3]; 75 °C, pH 2): 0.0181
optimal temperature of oxidative chlorination (soybean peroxidase [3]; pH 2): about 45 °C
Absorbance Units at 307 nm (soybean peroxidase [3]; time of reaction 0 min): 0.175 Absorbance Units
Absorbance Units at 307 nm (soybean peroxidase [3]; time of reaction 1 min): 0.275 Absorbance Units
Absorbance Units at 307 nm (soybean peroxidase [3]; time of reaction 2 min): 0.510 Absorbance Units
Absorbance Units at 307 nm (soybean peroxidase [3]; time of reaction 3 min): 0.800 Absorbance Units
Absorbance Units at 307 nm (soybean peroxidase [3]; time of reaction 7 min): 0.868 Absorbance Units

COc1ccc(CO)cc1OC [veratryl alcohol, 3,4-dimethoxybenzyl alcohol]
activity (dA per minute at 308 nm) (soybean peroxidase [4]; 0.1M KCl/HCl buffer at pH 2): 0.2265
dA per minute at 308 nm (soybean peroxidase [4]; 25 °C, pH 2, without CaCl2): 1.427
dA per minute at 308 nm (soybean peroxidase [4]; 35 °C, pH 2, without CaCl2): 2.358
dA per minute at 308 nm (soybean peroxidase [4]; 45 °C, pH 2, without CaCl2): 3.17
dA per minute at 308 nm (soybean peroxidase [4]; 55 °C, pH 2, without CaCl2): 0.3467
dA per minute at 308 nm (soybean peroxidase [4]; 65 °C, pH 2, without CaCl2): 0.0018
dA per minute at 308 nm (soybean peroxidase [4]; pH 1.25, 20 mM CaCl2, room temperature): 0.0045
dA per minute at 308 nm (soybean peroxidase [4]; pH 1.35, 20 mM CaCl2, room temperature): 0.0361
dA per minute at 308 nm (soybean peroxidase [4]; pH 1.65, 20 mM CaCl2, room temperature): 0.2358
dA per minute at 308 nm (soybean peroxidase [4]; pH 1.85, 20 mM CaCl2, room temperature): 1.611
dA per minute at 308 nm (soybean peroxidase [4]; pH 2.15, 20 mM CaCl2, room temperature): 0.945
dA per minute at 308 nm (soybean peroxidase [4]; pH 2.35, 20 mM CaCl2, room temperature): 0.2243
dA per minute at 308 nm (soybean peroxidase [4]; pH 2.55, 20 mM CaCl2, room temperature): 0.1093
dA per minute at 308 nm (soybean peroxidase [4]; pH 2.85, 20 mM CaCl2, room temperature): 0.0587
dA per minute at 308 nm (soybean peroxidase [4]; pH 3, 20 mM CaCl2, room temperature): 0.0119
pH optimum (soybean peroxidase [4]; veratryl alcohol oxidation): around 2
